The assay deals with human IDO1 (Homo sapiens, UniProt P14902). Description: Assessment of human IDO-1 inhibitory activity in HEK cells (human IDO1/HEK293 cells, kynurenine read-out with Ehrlich reagent, absorbance 490 nm). Also noted: expressed in transfected cells. The following applies: HEK Human IDO-1 cellular assay. The assay is classed as cell-based. A digest of the protocol:
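Kynurenine output from stably IDO1-transfected HEK293 cells (10,000/well, phenol red-free RPMI, 10% FBS) after 20 h compound exposure at 37 °C. The reaction was stopped with 0.2% TCA and heated 30 min at 50 °C, then the supernatant was mixed with Ehrlich reagent and read at 490 nm. IC50 was set against DMSO and a 500 nM reference standard as 0 and 100% inhibition.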

human IDO1, sequence (P14902 whole entry): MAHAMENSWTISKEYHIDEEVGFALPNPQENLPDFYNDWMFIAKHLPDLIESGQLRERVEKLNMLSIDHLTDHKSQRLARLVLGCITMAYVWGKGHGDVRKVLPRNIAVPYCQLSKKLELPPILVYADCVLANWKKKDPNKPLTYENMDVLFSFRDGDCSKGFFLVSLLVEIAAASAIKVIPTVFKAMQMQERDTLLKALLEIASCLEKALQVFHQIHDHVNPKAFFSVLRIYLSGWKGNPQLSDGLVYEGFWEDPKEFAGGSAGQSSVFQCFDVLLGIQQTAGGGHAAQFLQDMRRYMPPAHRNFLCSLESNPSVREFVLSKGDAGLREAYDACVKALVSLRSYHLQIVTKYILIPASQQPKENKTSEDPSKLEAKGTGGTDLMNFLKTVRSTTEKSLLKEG

For `CCN(c1ccc(C(CC(=O)O)c2ccccc2)cc1NC(=O)Nc1ccc(C)cc1)C1CCOCC1` (single isomer, unassigned) [Example 584, 3-(4-(Ethyl(tetrahydro-2H-pyran-4-yl)amino)-3-(3-(p-tolyl)ureido)phenyl)-3-phenylpropanoic acid], the IC50 was > 50 nM.

In the case of `CCN(c1ccc(C(CC(=O)O)c2ccccc2)cc1NC(=O)Nc1ccc(Cl)cc1F)C1CCOCC1` (single isomer, unassigned) [Example 585, 3-(3-(3-(4-chloro-2-fluorophenyl)ureido)-4-(ethyl (tetrahydro-2H-pyran-4-yl)amino)phenyl)-3-phenylpropanoic acid], the 50% inhibitory concentration (IC50) was < 50 nM. Next, `CCN(c1ccc(C(CC(=O)O)c2ccccc2)cc1NC(=O)Nc1ccc(OC)cc1F)C1CCOCC1` (single isomer, unassigned) [Example 586, 3-(4-(ethyl(tetrahydro-2H-pyran-4-yl)amino)-3-(3-(2-fluoro-4-methoxyphenyl)ureido)phenyl)-3-phenylpropanoic acid]: > 50 nM; `CCN(c1ccc(C(CC(=O)O)c2ccccc2)cc1NC(=O)Nc1cc(C)on1)C1CCOCC1` (single isomer, unassigned) [Example 587, 3-(4-(ethyl(tetrahydro-2H-pyran-4-yl)amino)-3-(3-(5-methylisoxazol-3-yl)ureido)phenyl)-3-phenylpropanoic acid]: > 50 nM; `CCOc1ncc(Nc2cc(C(CC(=O)O)c3ccccc3)ccc2N(CC)C2CCOCC2)cn1` (single isomer, unassigned) [Example 588, 3-(3-((2-Ethoxypyrimidin-5-yl)amino)-4-(ethyl(tetrahydro-2H-pyran-4-yl)amino)phenyl)-3-phenylpropanoic acid]: > 50 nM.

For the molecule `CCN(c1ccc(C(CC(=O)O)c2ccccc2)cc1Nc1ccc(Cl)cc1)C1CCOCC1` (single isomer, unassigned) [Example 590, 3-(3-((4-chlorophenyl)amino)-4-(ethyl(tetrahydro-2H-pyran-4-yl)amino)phenyl)-3-phenylpropanoic acid], the IC50 is < 50 nM. Next, `CCN(c1ccc(C(CC(=O)O)c2ccccc2)cc1Nc1ccc(Cl)cc1F)C1CCOCC1` (single isomer, unassigned) [Example 592, 3-(3-((4-chloro-2-fluorophenyl)amino)-4-(ethyl(tetrahydro-2H-pyran-4-yl)amino)phenyl)-3-phenylpropanoic acid]: > 50 nM; `CCN(c1ccc(C(CC(=O)O)c2ccccc2)cc1NC(=O)Nc1ccc(Cl)cc1F)C1CCOCC1` (single isomer, unassigned) [Example 595, 3-(3-(3-(4-chloro-2-fluorophenyl)ureido)-4-(ethyl(tetrahydro-2H-pyran-4-yl)amino)phenyl)-3-phenylpropanoic acid]: > 50 nM; `CCN(c1ccc(C(C)CC(=O)O)cc1Nc1ccc(Cl)cc1)C1CCOCC1` (single isomer, unassigned) [Example 612 E1, 3-(3-((4-Chlorophenyl)amino)-4-(ethyl(tetrahydro-2H-pyran-4-yl)amino)phenyl)butanoic acid]: < 5 nM. Next, `CCN(c1ccc(C(C)CC(=O)O)cc1Nc1ccc(C#N)cc1)C1CCOCC1` (single isomer, unassigned) [Example 613, 3-(3-((4-cyanophenyl)amino)-4-(ethyl(tetrahydro-2H-pyran-4-yl)amino)phenyl) butanoic acid]: < 5 nM; `CCN(c1ccc(C(C)CC(=O)O)cc1Nc1cnc(OCC2CC2)nc1)C1CCOCC1` (single isomer, unassigned) [Example 614, 3-(3-((2-(cyclopropylmethoxy)pyrimidin-5-yl)amino)-4-(ethyl(tetrahydro-2H-pyran-4-yl)amino)phenyl)butanoic acid]: < 50 nM; `CCN(c1ccc(C(C)CC(=O)O)cc1Nc1ccc(F)cc1)C1CCOCC1` (single isomer, unassigned) [Example 615, 3-(4-(ethyl(tetrahydro-2H-pyran-4-yl)amino)-3-((4-fluorophenyl)amino)phenyl) butanoic acid]: < 5 nM. Next, `CCN(c1ccc(C(C)CC(=O)O)cc1Nc1ccc2c(c1)OC(F)(F)O2)C1CCOCC1` (single isomer, unassigned) [Example 616, 3-(3-((2,2-difluorobenzo[d] [1,3]dioxol-5-yl)amino)-4-(ethyl(tetrahydro-2H-pyran-4-yl)amino)phenyl)butanoic acid]: < 5 nM; `CCN(c1ccc(C(C)CC(=O)O)cc1Nc1ccc2nc(C)sc2c1)C1CCOCC1` (single isomer, unassigned) [Example 617, 3-(4-(ethyl(tetrahydro-2H-pyran-4-yl)amino)-3-((2-methylbenzo[d]thiazol-6-yl)amino)phenyl)butanoic acid]: < 50 nM. As to `CCOc1cnc(Nc2cc(C(C)CC(=O)O)ccc2N(CC)C2CCOCC2)cn1` (single isomer, unassigned) [Example 618, 3-(3-((5-ethoxypyrazin-2-yl)amino)-4-(ethyl (tetrahydro-2H-pyran-4-yl)amino)phenyl)butanoic acid], the IC50 is < 5 nM.

`CCOc1ncc(Nc2cc(C(C)CC(=O)O)ccc2N(CC)C2CCOCC2)cn1` (single isomer, unassigned) [Example 619, 3-(3-((2-ethoxypyrimidin-5-yl)amino)-4-(ethyl (tetrahydro-2H-pyran-4-yl)amino)phenyl)butanoic acid]: the concentration for half-maximal inhibition (IC50) is < 50 nM.

Consider `CCN(c1ccc(C(C)CC(=O)O)cc1Nc1cnc(C)nc1)C1CCOCC1` (single isomer, unassigned) [Example 623, 3-(4-(ethyl(tetrahydro-2H-pyran-4-yl)amino)-3-((2-methylpyrimidin-5-yl)amino)phenyl)butanoic acid], for which the IC50 is < 50 nM. In the case of `CCN(c1ccc(C(C)CC(=O)O)cc1Nc1cnc(OC)nc1)C1CCOCC1` (single isomer, unassigned) [Example 633, 3-(4-(ethyl(tetrahydro-2H-pyran-4-yl)amino)-3-((2-methoxypyrimidin-5-yl)amino)phenyl)butanoic acid] it was < 50 nM; in that of `CCN(c1ccc(C(C)CC(=O)O)cc1Nc1cnc(C)nc1)C1CCOCC1` (single isomer, unassigned) [Example 636, 3-(4-(ethyl(tetrahydro-2H-pyran-4-yl)amino)-3-((2-methylpyrimidin-5-yl)amino)phenyl)butanoic acid], > 50 nM; in that of `CCN(c1ccc(C(C)CC(=O)O)cc1NC(=O)Nc1ccc(Cl)cc1F)C1CCOCC1` (single isomer, unassigned) [Example 637 E1, 3-(3-(3-(4-Chloro-2-fluorophenyl)ureido)-4-(ethyl(tetrahydro-2H-pyran-4-yl)amino)phenyl)butanoic acid], < 5 nM.

For the molecule `CCN(c1ccc(C(C)CC(=O)O)cc1NC(=O)Nc1ccccc1F)C1CCOCC1` (single isomer, unassigned) [Example 638, 3-(4-(ethyl(tetrahydro-2H-pyran-4-yl)amino)-3-(3-(2-fluorophenyl)ureido)phenyl) butanoic acid], the IC50 was < 50 nM.

In the case of `CCN(c1ccc(C(C)CC(=O)O)cc1NC(=O)Nc1ccc(C)cc1)C1CCOCC1` (single isomer, unassigned) [Example 639, 3-(4-(ethyl(tetrahydro-2H-pyran-4-yl)amino)-3-(3-(p-tolyl)ureido)phenyl)butanoic acid], the IC50 is < 50 nM.

For orientation: IC50 means the concentration that inhibits the measured activity by half.

(Values after US9790169B2, “IDO inhibitors” (BRISTOL-MYERS SQUIBB COMPANY, priority 2015, dated 2017).)
